Source: ChEMBL document CHEMBL1201862, “PubChem BioAssay data set” (2004)
Values joined by “and” are separate entries in the source; they are usually repeats but may differ in a detail not shown here. Equal entries are not always repeated.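 Briefly, cells in 96-well plates were exposed to five compound concentrations for 48 h, and endpoints were estimated by linear interpolation. Here, GI50 denotes the concentration required for 50% inhibition of growth.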 Active and inactive are the calls of the source. No stated cut-off is given here; in the data, active = GI50 up to about 1.1 µM and inactive = higher.

Key:
Experiment in all cases: inhibition of tumour cell growth, NCI panel, 48 h
SR = system: SR
OVCAR-3 = system: OVCAR-3
MOLT-4 = system: MOLT-4
M14 = system: M14
SW-620 = system: SW-620
CAKI-1 = system: CAKI-1
DU-145 = system: DU-145
TK-10 = system: TK-10
SK-MEL-28 = system: SK-MEL-28
HL-60 = system: HL-60
HCC 2998 = system: HCC 2998
UACC-257 = system: UACC-257
NCI-H23 = system: NCI-H23
SK-OV-3 = system: SK-OV-3
NCI-H226 = system: NCI-H226
MDA-N = system: MDA-N
SN12C = system: SN12C
IGROV-1 = system: IGROV-1
MDA-MB-435 = system: MDA-MB-435
RPMI-8226 = system: RPMI-8226

Measured: GI50

N#Cc1cnn2cc[nH]c12
inactive: SR > 100 µM | OVCAR-3 > 100 µM | MOLT-4 > 100 µM | M14 > 100 µM | SW-620 > 100 µM | CAKI-1 > 100 µM | DU-145 > 100 µM | TK-10 > 100 µM | SK-MEL-28 > 100 µM | HL-60 > 100 µM | HCC 2998 > 100 µM | UACC-257 > 100 µM | NCI-H23 > 100 µM | SK-OV-3 > 100 µM | NCI-H226 > 100 µM | MDA-N > 100 µM | SN12C > 100 µM | IGROV-1 > 100 µM

COc1ccc(C2=Nn3c(nnc3-c3ccccc3)S/C2=C\c2ccc(-c3ccc([N+](=O)[O-])cc3)o2)cc1
inactive: SR 9.62 µM | OVCAR-3 23.3 µM | MOLT-4 11.3 µM | M14 25.4 µM | SW-620 24.2 µM | CAKI-1 51.2 µM | MDA-MB-435 5.83 µM | SK-MEL-28 69.7 µM | HL-60 14.5 µM | HCC 2998 28 µM | UACC-257 44.7 µM | RPMI-8226 13.1 µM | SK-OV-3 34.4 µM | MDA-N 7.6 µM | SN12C 18.2 µM | IGROV-1 56.9 µM

CC(=O)/C(=C/n1ccc(=O)[nH]c1=S)C(=O)Nc1ccccc1C
inactive: OVCAR-3 > 100 µM | M14 > 100 µM | SW-620 > 100 µM | CAKI-1 > 100 µM | MDA-MB-435 > 100 µM | DU-145 > 100 µM | TK-10 > 100 µM | SK-MEL-28 > 100 µM | HL-60 82.6 µM | HCC 2998 > 100 µM | UACC-257 > 100 µM | NCI-H23 > 100 µM | SK-OV-3 > 100 µM | NCI-H226 > 100 µM | MDA-N > 100 µM | SN12C > 100 µM | IGROV-1 > 100 µM

O=Cc1ccc(OC[C@H]2COC(=O)N2)cc1
inactive: SR > 100 µM | OVCAR-3 > 100 µM | MOLT-4 > 100 µM | M14 > 100 µM | SW-620 > 100 µM | CAKI-1 > 100 µM | MDA-MB-435 > 100 µM | DU-145 > 100 µM | TK-10 > 100 µM | SK-MEL-28 > 100 µM | HL-60 > 100 µM | HCC 2998 56.5 µM | UACC-257 > 100 µM | NCI-H23 > 100 µM | SK-OV-3 > 100 µM | NCI-H226 > 100 µM | SN12C > 100 µM | IGROV-1 > 100 µM

Cc1ccnc(NC(=S)Nc2cccc(Cl)c2)c1
inactive: SR > 100 µM | OVCAR-3 > 100 µM | MOLT-4 > 100 µM | M14 > 100 µM | SW-620 > 100 µM | CAKI-1 > 100 µM | MDA-MB-435 > 100 µM | DU-145 > 100 µM | TK-10 > 100 µM | SK-MEL-28 > 100 µM | HL-60 > 100 µM | UACC-257 > 100 µM | RPMI-8226 > 100 µM | SK-OV-3 > 100 µM | SN12C > 100 µM | IGROV-1 10.5 µM

Cc1c/c(=N/NC(=O)c2ccncc2)n2nc(N)sc2n1
inactive: SR > 100 µM | OVCAR-3 > 100 µM | MOLT-4 > 100 µM | M14 > 100 µM | SW-620 > 100 µM | CAKI-1 > 100 µM | MDA-MB-435 > 100 µM | DU-145 > 100 µM | SK-MEL-28 > 100 µM | HL-60 > 100 µM | HCC 2998 > 100 µM | UACC-257 > 100 µM | NCI-H23 > 100 µM | RPMI-8226 > 100 µM | SK-OV-3 > 100 µM | NCI-H226 > 100 µM | SN12C > 100 µM | IGROV-1 > 100 µM

COC(=O)[C@@H]1[C@H](O)[C@H](C)[C@H](O)[C@@](C)(O)/C=C\C=C(\C)C(=O)Nc2c(C)c(OC(C)=O)c3c(c2O)C(=O)C(C)=C2OCOC(=C23)/C(C)=C/[C@@](C)(O)[C@H](O)[C@@H](C)[C@H]1OC(C)=O
inactive: OVCAR-3 43.1 µM and 32 µM | MOLT-4 27.7 µM and 61.7 µM | SW-620 9.91 µM and 59 µM | CAKI-1 93.8 µM | DU-145 > 66.8 µM | TK-10 > 66.8 µM | SK-MEL-28 > 100 µM | HL-60 20.5 µM | HCC 2998 21.8 µM | UACC-257 27.2 µM and 80.4 µM | NCI-H23 27.4 µM | RPMI-8226 31.8 µM | SK-OV-3 82.2 µM | NCI-H226 > 100 µM and 94.2 µM | SN12C 43.6 µM | IGROV-1 > 100 µM and 53 µM

O=NC1C(Cl)C2CC1C1C(Br)C(Br)CC21 (centres undefined)
inactive: SR 48.9 µM | OVCAR-3 > 100 µM | MOLT-4 > 100 µM | M14 > 100 µM | SW-620 > 100 µM | CAKI-1 > 100 µM | MDA-MB-435 > 100 µM | DU-145 > 100 µM | TK-10 > 100 µM | SK-MEL-28 > 100 µM | HL-60 > 100 µM | NCI-H23 > 100 µM | RPMI-8226 20.8 µM | SK-OV-3 > 100 µM | NCI-H226 > 100 µM | SN12C > 100 µM | IGROV-1 > 100 µM

O=[N+]([O-])c1cc2c(cc1/C=N/n1c(CO)nc3ccccc31)OCO2
inactive: OVCAR-3 > 100 µM | MOLT-4 > 100 µM | M14 > 100 µM | SW-620 > 100 µM | CAKI-1 > 100 µM | MDA-MB-435 > 100 µM | DU-145 > 100 µM | TK-10 > 100 µM | SK-MEL-28 > 100 µM | HL-60 > 100 µM | UACC-257 > 100 µM | NCI-H23 > 100 µM | RPMI-8226 > 100 µM | SK-OV-3 > 100 µM | NCI-H226 > 100 µM | MDA-N > 100 µM | SN12C > 100 µM

NCCSc1nc(-c2ccccc2)c(-c2ccccc2)o1
inactive: SR 7.38 µM | OVCAR-3 > 100 µM | M14 > 100 µM | SW-620 > 100 µM | CAKI-1 > 100 µM | MDA-MB-435 > 100 µM | DU-145 > 100 µM | TK-10 15.3 µM | SK-MEL-28 > 100 µM | UACC-257 41.2 µM | NCI-H23 17.7 µM | RPMI-8226 88.3 µM | SK-OV-3 73.3 µM | NCI-H226 > 100 µM | SN12C 77.8 µM | IGROV-1 71.4 µM

COCC1OCCN1C (centres undefined)
inactive: SR > 100 µM | OVCAR-3 > 100 µM | MOLT-4 > 100 µM | M14 > 100 µM | SW-620 > 100 µM | CAKI-1 > 100 µM | MDA-MB-435 > 100 µM | TK-10 > 100 µM | UACC-257 > 100 µM | NCI-H23 > 100 µM | RPMI-8226 > 100 µM | SK-OV-3 > 100 µM | NCI-H226 > 100 µM | MDA-N > 100 µM | IGROV-1 > 100 µM

CCOc1ccc(/N=N/c2c(-c3ccccc3)nn(C(=O)CC(=O)Nc3ccccc3Cl)c2-c2ccccc2)cc1
inactive: SR 72.8 µM | OVCAR-3 35.8 µM | MOLT-4 34.1 µM | M14 > 100 µM | SW-620 > 100 µM | CAKI-1 23.4 µM | TK-10 74.6 µM | SK-MEL-28 27.7 µM | HL-60 25.6 µM | HCC 2998 41.5 µM | UACC-257 80.4 µM | NCI-H23 56.9 µM | RPMI-8226 37.4 µM | SK-OV-3 > 100 µM | NCI-H226 65.9 µM | SN12C > 100 µM | IGROV-1 > 100 µM

O=C1C=Cc2c(-c3ccccc3)oc3cccc1c23
inactive: SR 10.1 µM | OVCAR-3 20.9 µM | MOLT-4 3.76 µM | M14 30.5 µM | SW-620 18.7 µM | CAKI-1 6.55 µM | TK-10 39.7 µM | SK-MEL-28 56.9 µM | HL-60 9.12 µM | HCC 2998 25.6 µM | UACC-257 35.4 µM | NCI-H23 16.4 µM | RPMI-8226 3.97 µM | SK-OV-3 24.4 µM | NCI-H226 11.3 µM | SN12C 9.82 µM | IGROV-1 15.8 µM

O=C(Nc1ccccc1)c1cc2cc(CCl)ccc2oc1=O
inactive: SR 41.5 µM | OVCAR-3 > 100 µM | MOLT-4 > 100 µM | M14 > 100 µM | SW-620 > 100 µM | CAKI-1 > 100 µM | MDA-MB-435 > 100 µM | DU-145 > 100 µM | TK-10 39.8 µM | SK-MEL-28 > 100 µM | HL-60 41.6 µM | HCC 2998 > 100 µM | UACC-257 > 100 µM | NCI-H23 16.5 µM | RPMI-8226 > 100 µM | SK-OV-3 > 100 µM | NCI-H226 > 100 µM | SN12C > 100 µM | IGROV-1 > 100 µM

CNC1=Nc2ccccc2C(=S)N2CSC[C@@H]12
inactive: SR 7.55 µM | OVCAR-3 > 100 µM | MOLT-4 > 100 µM | M14 > 100 µM | SW-620 > 100 µM | CAKI-1 > 100 µM | MDA-MB-435 > 100 µM | DU-145 > 100 µM | TK-10 > 100 µM | SK-MEL-28 > 100 µM | HCC 2998 > 100 µM | NCI-H23 > 100 µM | RPMI-8226 > 100 µM | SK-OV-3 > 100 µM | SN12C > 100 µM

COC(C)(C)[C@@H]1CCCN1C1=C(C)C(=O)OC1
inactive: SR > 100 µM | MOLT-4 > 100 µM | CAKI-1 > 100 µM | DU-145 > 100 µM | HL-60 > 100 µM | HCC 2998 > 100 µM | NCI-H23 > 100 µM | RPMI-8226 > 100 µM | SK-OV-3 > 100 µM | MDA-N > 100 µM | SN12C > 100 µM | IGROV-1 > 100 µM
